Data taken from patent US20190381004A1, “PHOTOPROTECTIVE COMPOSITIONS CONTAINING MALASSEZIA-DERIVED COMPOUNDS AND/OR CHEMICAL ANALOGS THEREOF” (priority 2018, published 2019).
Where two headings read alike, the source gives them in different places.

Assays:
[1] = target: T1, arylhydrocarbon receptor (AhR) (Homo sapiens, UniProt P35869); settings: cited from earlier work
T1 sequence (P35869 11-848): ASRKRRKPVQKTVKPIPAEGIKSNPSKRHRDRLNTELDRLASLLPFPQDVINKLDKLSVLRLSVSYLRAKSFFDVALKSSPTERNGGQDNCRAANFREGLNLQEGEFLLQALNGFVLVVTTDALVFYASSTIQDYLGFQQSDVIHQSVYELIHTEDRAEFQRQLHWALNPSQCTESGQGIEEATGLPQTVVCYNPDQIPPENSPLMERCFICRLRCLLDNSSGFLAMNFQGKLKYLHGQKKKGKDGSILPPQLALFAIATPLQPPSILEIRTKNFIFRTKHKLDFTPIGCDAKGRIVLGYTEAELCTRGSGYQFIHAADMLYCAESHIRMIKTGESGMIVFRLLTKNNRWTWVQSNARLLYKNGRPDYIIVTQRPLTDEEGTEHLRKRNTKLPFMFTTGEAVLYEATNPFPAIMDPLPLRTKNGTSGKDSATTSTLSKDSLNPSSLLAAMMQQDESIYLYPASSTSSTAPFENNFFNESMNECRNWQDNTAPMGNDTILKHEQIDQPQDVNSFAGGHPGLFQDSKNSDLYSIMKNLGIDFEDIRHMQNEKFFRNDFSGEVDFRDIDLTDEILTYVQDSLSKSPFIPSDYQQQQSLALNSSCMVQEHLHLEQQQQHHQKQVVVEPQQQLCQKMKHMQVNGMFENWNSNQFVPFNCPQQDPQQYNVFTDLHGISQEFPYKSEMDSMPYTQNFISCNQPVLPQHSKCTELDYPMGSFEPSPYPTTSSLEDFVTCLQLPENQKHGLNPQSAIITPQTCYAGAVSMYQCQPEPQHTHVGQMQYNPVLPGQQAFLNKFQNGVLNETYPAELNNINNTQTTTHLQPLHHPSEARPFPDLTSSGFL

[2] = tested on: UV-induced erythema; assay: In vivo photoprotection proof of concept: UVB irradiation of treated skin sites, erythema assessment; design: species or system human; settings: one Skin Type IV subject
From the text: The Malassezin 1% formulation used in this study contained the following ingredients: Water (aqua)—65.939%; Dimethyl isosorbide—20.000%; Olive Oil Glycereth-8 Esters—3.000%; Glycerin—2.991%; Coconut Alkanes—2.700%; Hydroxyethyl Acrylate/Sodium Acryloyldimethyl Taurate Copolymer—1.700%; Malassezin—1.000%; Pentylene Glycol—1.000%; Phenoxyethanol—0.640%; Coco-Caprylate/Caprate—0.300%; Caprylyl Glycol—0.200%; Chlorphenesin—0.160%; Sorbitan Isostearate—0.140%; Tocopherol—0.100%; Polysorbate 60-0.080%; and Disodium EDTA—0.050%.
A Skin Type IV […] was included in this Proof of Concept study.
A template of 6 squares was placed on the lower left back (1.5 cm×1.5 cm) of the test subject.
Twenty-four hours after irradiation, the subject returned for MED assessment.
A second right lower square was treated twice daily from day 4 to day 7, and a third medial square for one application on day 7. The product vehicle was applied for 7 days twice daily on the left back. The subject returned to the research center for irradiation on day 7. Each test site was irradiated with 120 mJ of UVB exposure. The subject returned in 24 hours for assessment of phototoxicity/photoprotection.
The subject continued the experiment, receiving Malassezin 1% for a total of 14 days. […]

[3] = cited from earlier work; for sun protection factor (SPF): cream
[4] = tested on: Candida albicans and staphylococci; settings: cited from earlier work

Compound	AhR agonist activity [1]	UV-protective properties (conclusion of study) [2]	sun protection factor (SPF) ([3]; pityriacitrin concentration 1.25%)	sun protection factor (SPF) ([3]; pityriacitrin concentration 2.5%)	sun protection factor (SPF) ([3]; pityriacitrin concentration 5%)	UV protective effect overall ([3]; in vitro and in vivo test methods in humans)	UV-protective effect on microflora ([4]; Candida albicans and staphylococci)	toxicity to microflora ([4]; ranges tested)
O=C1Nc2ccccc2/C1=C1/Nc2ccccc2C1=O [Indirubin]	known agonist	–	–	–	–	–	–	–
O=Cc1c(Cc2c[nH]c3ccccc23)[nH]c2ccccc12 [Malassezin, 2-(1H-indol-3-ylmethyl)-1H-indole-3-carbaldehyde]	known agonist	UV-protective properties	–	–	–	–	–	–
O=C(c1c[nH]c2ccccc12)c1nccc2c1[nH]c1ccccc12 [Pityriacitrin]	–	–	1.4	1.5	1.7	very weak	UV-protective effect	no toxicity
